Data reported in article PMC4053474 (Bioconjugate chemistry, 2008).

How the values were obtained:
[1] = tested on: Integrin αVβ6-positive H2009 cells; assay: flow cytometric analysis of doxorubicin uptake; type: cell-based, human; settings: 30 µM, 2 h, flow cytometry
[2] = tested on: Integrin αVβ6-positive H2009 cells; assay: cell viability assay; type: cell-based, human; settings: 200 nM to 5 µM, 24 h exposure, 72 h post-incubation, CellTiter Glo
H2009 cells = settings: ref personal communication, Drs. John D. Minna and Michael Peyton; cited from earlier work
αvβ6 = αvβ6 (Homo sapiens, UniProt P06756+P18564); assay: binding affinity for integrin αvβ6; settings: data not shown
Sequence of αvβ6 (P06756 31-889 limits assumed): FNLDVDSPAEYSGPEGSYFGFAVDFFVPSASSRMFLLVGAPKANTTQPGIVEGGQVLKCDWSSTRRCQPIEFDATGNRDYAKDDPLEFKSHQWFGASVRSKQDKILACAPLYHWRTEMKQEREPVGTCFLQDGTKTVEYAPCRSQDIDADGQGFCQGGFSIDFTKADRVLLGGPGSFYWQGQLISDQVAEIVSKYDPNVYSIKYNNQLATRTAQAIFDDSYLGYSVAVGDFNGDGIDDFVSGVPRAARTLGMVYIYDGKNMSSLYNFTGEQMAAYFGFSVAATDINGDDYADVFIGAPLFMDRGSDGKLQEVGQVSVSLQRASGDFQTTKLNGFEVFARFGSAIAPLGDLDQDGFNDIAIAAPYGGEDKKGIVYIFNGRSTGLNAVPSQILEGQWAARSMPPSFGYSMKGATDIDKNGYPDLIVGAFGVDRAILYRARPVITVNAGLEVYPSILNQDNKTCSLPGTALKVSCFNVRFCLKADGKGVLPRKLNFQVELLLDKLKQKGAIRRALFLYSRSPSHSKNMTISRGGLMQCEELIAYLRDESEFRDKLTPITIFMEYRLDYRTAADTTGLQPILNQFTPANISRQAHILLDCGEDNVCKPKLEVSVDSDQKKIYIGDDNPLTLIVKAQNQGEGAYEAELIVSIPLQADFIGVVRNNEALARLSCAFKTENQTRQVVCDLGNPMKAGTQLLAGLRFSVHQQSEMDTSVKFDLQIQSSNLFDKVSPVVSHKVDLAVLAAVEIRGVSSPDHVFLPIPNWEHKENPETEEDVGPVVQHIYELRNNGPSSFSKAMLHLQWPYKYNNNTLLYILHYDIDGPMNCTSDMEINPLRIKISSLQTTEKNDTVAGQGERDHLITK
Sequence of αvβ6 (P06756 891-1048 partner limits assumed): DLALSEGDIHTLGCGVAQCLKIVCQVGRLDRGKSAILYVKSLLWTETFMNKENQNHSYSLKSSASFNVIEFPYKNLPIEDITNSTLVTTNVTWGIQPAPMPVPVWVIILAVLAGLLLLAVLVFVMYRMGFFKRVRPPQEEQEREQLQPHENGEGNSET
Sequence of αvβ6 (P18564 22-788): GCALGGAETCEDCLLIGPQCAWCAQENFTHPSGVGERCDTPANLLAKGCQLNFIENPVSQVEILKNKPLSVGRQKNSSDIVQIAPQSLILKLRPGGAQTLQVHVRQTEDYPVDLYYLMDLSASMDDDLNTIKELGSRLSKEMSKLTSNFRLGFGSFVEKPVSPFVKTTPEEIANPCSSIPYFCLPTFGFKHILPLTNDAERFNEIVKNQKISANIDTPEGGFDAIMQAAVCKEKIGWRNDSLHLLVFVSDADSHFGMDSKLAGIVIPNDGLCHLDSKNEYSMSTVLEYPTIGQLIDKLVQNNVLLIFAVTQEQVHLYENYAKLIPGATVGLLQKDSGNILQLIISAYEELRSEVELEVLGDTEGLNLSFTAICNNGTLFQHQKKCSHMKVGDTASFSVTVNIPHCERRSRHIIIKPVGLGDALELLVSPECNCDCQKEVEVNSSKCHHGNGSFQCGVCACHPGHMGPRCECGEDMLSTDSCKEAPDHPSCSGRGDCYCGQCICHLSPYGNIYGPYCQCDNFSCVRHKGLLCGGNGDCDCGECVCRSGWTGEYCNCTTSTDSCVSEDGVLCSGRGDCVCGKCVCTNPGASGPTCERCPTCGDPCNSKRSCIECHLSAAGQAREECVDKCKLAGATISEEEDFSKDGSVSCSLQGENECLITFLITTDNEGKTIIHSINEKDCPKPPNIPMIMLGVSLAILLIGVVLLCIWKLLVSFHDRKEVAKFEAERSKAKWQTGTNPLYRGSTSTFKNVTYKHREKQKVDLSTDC

## COc1cccc2c1C(=O)c1c(O)c3c(c(O)c1C2=O)C[C@@](O)(C(=O)CO)C[C@@H]3O[C@H]1C[C@H](N)[C@H](O)[C@H](C)O1 [doxorubicin, reference compound]
[1]
  internalization into H2009 compared with H1299 cells: internalizes into both cell lines equally
[2]
  pairwise comparison of viability of H2009 and H1299 cells: did not demonstrate any statistical difference

## CC(=O)O[C@H]1C(=O)[C@@]2(C)[C@H]([C@H](OC(=O)c3ccccc3)[C@]3(O)C[C@H](OC(=O)[C@H](O)[C@@H](NC(=O)c4ccccc4)c4ccccc4)C(C)=C1C3(C)C)[C@]1(OC(C)=O)CO[C@@H]1C[C@@H]2O [paclitaxel]
H2009 cells
  IC50 relative to that of doxorubicin (fold lower): 40 fold

## DALRLQGTLR [scrambled sequence peptide]
αvβ6
  binding affinity for αvβ6: no binding affinity
